# Source: publication PMC11247499, “2,8-Disubstituted-1,5-naphthyridines as Dual Inhibitors of Plasmodium falciparum Phosphatidylinositol-4-kinase and Hemozoin Formation with In Vivo Efficacy” (Journal of Medicinal Chemistry, 2024)
# Several values for one entry are separate records, joined by “and”; a condition that tells them apart may be missing. Equal values may be shown once. Read-outs that look alike come from different tables or passages of the source.
# Columns and labels:
# [1] = tested on: multidrug-resistant strain, K1; test: Antiplasmodial activity, parasite lactate dehydrogenase assay, K1; assay type: cell-based, Plasmodium falciparum; conditions: Plasmodium falciparum, K1, 72 h, parasite lactate dehydrogenase assay over 72 h; read-out: Pf IC50 ± SD K1
# [2] = tested on: Dd2; test: microbe, parasite or virus in culture; assay type: cell-based; conditions: Plasmodium falciparum, DD2, 72 h, read-out: Dd2 IC50 ± SD
# [3] = tested on: Dd2_PI4K_CNV; test: microbe, parasite or virus in culture; assay type: cell-based; conditions: Plasmodium falciparum, 72 h, read-out: Dd2_PI4K_CNV IC50
# [4] = biological target: PvPI4K (Plasmodium vivax, UniProt A5KB26); test: biochemical; conditions: purified recombinant PvPI4K, 10 μM ATP, ADP-Glo; mean of N ≥ 2; read-out: PvPI4K IC50 ± SD
# PvPI4K, sequence (A5KB26 entry or part of it): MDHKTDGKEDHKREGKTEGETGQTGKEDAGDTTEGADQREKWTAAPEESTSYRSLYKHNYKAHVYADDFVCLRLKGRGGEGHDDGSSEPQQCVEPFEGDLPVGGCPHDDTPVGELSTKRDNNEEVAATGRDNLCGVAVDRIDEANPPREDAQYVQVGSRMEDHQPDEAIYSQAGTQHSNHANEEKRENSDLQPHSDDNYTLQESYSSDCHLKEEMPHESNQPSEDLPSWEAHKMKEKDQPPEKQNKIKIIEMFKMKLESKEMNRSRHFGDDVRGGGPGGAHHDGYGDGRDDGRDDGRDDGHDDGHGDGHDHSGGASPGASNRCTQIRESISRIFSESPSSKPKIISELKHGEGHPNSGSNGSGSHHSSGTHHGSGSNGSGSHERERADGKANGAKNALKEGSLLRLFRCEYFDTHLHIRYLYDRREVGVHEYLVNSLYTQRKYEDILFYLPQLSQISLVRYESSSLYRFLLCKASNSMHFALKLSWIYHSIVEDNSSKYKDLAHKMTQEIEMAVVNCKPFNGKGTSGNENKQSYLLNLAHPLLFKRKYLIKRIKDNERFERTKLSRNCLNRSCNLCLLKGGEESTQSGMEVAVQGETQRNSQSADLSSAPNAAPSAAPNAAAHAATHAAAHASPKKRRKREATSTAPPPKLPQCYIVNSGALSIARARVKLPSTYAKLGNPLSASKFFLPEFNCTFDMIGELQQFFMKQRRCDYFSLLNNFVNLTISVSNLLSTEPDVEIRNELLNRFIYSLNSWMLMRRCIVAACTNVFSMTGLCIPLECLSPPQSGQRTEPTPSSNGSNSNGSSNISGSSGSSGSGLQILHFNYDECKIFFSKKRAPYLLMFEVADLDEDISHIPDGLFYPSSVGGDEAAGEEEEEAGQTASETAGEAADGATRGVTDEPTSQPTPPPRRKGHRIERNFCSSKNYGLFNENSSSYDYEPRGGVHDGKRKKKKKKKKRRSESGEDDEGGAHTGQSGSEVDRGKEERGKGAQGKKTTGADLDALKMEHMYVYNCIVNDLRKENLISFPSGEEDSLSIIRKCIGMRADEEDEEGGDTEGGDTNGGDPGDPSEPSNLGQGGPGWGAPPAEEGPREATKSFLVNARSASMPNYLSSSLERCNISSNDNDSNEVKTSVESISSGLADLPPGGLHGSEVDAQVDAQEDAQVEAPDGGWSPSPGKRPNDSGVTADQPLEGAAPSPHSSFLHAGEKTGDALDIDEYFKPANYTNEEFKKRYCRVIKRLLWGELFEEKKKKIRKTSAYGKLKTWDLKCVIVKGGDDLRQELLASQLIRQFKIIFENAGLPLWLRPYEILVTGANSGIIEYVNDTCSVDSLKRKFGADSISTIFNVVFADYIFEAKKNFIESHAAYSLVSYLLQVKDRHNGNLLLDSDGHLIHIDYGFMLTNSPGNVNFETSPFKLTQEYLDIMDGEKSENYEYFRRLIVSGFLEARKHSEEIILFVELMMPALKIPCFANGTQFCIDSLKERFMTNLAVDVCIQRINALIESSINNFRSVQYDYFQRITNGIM
# [5] = tested on: Chinese Hamster Ovary (CHO) cell line; test: cells; assay type: cell-based; conditions: Cricetulus griseus, CHO; MTT assay over 48h; read-out: CHO IC50
# [6] = tested on: P. falciparum NF54 strain; test: Antiplasmodial activity, parasite lactate dehydrogenase assay, NF54; assay type: cell-based, Plasmodium falciparum; conditions: Plasmodium falciparum, NF54, 72 h, parasite lactate dehydrogenase assay over 72 h; read-out: Pf IC50 ± SD NF54
# [7] = tested on: β-hematin (βH) formation; test: NP-40 mediated cell-free β-hematin assay; conditions: read-out: β-hematin IC50; cell-free NP-40 detergent-mediated assay; n = 2
# [8] = Solubility, miniaturized shake flask method
# [9] = In vitro microsomal stability, rat; assay type: in vitro ADME; conditions: rat liver microsomes, pH 7.4, read-out: microsomal CLint, app rat
# [10] = biological target: cytochrome P450 2C9 (Homo sapiens, UniProt P11712); test: Cytochrome P450 inhibition, 2C9; assay type: in vitro ADME
# cytochrome P450 2C9, sequence (P11712 whole entry): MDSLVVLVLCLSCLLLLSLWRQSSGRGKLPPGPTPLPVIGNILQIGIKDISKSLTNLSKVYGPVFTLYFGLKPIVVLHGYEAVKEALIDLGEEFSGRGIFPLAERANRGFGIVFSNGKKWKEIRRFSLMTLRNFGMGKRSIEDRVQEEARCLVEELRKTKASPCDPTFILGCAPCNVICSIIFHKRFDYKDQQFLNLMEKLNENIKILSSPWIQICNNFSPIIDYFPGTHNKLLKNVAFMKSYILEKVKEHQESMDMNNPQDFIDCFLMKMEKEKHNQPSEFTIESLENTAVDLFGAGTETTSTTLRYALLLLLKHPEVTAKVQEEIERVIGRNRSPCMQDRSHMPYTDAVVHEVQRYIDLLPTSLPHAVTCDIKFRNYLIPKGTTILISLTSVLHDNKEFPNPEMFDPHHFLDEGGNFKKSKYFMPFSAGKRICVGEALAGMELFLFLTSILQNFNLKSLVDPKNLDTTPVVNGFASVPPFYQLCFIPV
# [11] = Caco-2 permeability; assay type: in vitro ADME; conditions: human
# [12] = biological target: cytochrome P450 2C19 (Homo sapiens, UniProt P33261); test: Cytochrome P450 inhibition, 2C19; assay type: in vitro ADME
# [13] = In vitro microsomal stability, mouse; assay type: in vitro ADME; conditions: mouse liver microsomes, pH 7.4, read-out: microsomal CLint, app mouse
# [14] = tested on: P. falciparum PI4K conditional knockdown line; test: microbe, parasite or virus in culture; assay type: cell-based, Plasmodium falciparum; conditions: for IC50: Plasmodium falciparum
# [15] = LogD shake-flask; assay type: physicochemical; conditions: n-octanol/phosphate buffer (1:1), phosphate buffer (pH 7.4) / n-octanol
# [16] = In vitro microsomal stability, human; assay type: in vitro ADME; conditions: pooled human liver microsomes, pH 7.4, read-out: microsomal CLint, app human
# [17] = biological target: HuPI3Kα (Homo sapiens, UniProt P42336); test: Human kinase inhibition, HuPI3Kα; conditions: read-out: HuPI3Kα, IC50
# [18] = biological target: HuMAP4K4 (Homo sapiens, UniProt O95819); test: Human kinase inhibition, HuMAP4K4; conditions: read-out: HuMAP4K4, IC50
# [19] = biological target: HuMINK1 (Homo sapiens, UniProt Q8N4C8); test: Human kinase inhibition, HuMINK1; conditions: read-out: HuMINK1, IC50
# HuMINK1, sequence (Q8N4C8 whole entry): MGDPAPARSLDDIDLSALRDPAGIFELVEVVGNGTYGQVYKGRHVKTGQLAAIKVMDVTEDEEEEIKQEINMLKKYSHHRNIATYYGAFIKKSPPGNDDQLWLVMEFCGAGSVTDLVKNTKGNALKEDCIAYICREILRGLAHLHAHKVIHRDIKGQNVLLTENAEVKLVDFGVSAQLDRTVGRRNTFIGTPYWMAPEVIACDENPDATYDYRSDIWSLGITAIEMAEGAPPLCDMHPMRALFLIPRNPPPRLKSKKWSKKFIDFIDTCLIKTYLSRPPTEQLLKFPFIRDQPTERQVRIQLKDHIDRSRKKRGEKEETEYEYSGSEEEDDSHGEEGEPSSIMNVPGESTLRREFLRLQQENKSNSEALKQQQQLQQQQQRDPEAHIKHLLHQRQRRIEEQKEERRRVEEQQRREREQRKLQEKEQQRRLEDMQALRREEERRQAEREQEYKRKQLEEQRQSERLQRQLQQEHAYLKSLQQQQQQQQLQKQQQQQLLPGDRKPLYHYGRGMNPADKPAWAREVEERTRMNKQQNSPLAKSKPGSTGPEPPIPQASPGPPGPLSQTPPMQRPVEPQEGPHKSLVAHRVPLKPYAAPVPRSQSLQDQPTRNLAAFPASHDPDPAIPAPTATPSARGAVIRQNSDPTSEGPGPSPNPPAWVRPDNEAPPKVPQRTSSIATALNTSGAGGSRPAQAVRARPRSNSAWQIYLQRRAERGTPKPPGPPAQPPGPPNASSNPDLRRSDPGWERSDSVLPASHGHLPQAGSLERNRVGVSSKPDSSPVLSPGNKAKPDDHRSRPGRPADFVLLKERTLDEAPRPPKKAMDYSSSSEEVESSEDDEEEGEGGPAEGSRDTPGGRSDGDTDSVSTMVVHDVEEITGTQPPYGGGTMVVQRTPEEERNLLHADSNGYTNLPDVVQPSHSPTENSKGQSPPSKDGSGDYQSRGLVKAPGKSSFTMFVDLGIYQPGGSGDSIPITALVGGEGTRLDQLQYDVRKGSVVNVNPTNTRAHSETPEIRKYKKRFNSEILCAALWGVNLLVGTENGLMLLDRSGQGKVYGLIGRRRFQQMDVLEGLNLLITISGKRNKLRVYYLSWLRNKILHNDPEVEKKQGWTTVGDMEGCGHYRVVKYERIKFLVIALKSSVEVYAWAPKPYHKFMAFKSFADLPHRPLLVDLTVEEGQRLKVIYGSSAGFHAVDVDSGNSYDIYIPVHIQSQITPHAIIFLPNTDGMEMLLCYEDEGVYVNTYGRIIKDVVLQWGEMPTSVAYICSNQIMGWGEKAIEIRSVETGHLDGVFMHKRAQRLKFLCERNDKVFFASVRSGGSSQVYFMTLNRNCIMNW
# [20] = Mouse pharmacokinetic studies; conditions: male, BalbC
# [21] = Plasma protein binding, human; assay type: in vitro ADME; conditions: pooled human plasma, read-out: PPB fu, human
# [22] = biological target: HuPI4Kβ (Homo sapiens, UniProt Q9UBF8); test: Human kinase inhibition, HuPI4Kβ; conditions: read-out: HuPI4Kβ, IC50
# HuPI4Kβ, sequence (Q9UBF8 whole entry): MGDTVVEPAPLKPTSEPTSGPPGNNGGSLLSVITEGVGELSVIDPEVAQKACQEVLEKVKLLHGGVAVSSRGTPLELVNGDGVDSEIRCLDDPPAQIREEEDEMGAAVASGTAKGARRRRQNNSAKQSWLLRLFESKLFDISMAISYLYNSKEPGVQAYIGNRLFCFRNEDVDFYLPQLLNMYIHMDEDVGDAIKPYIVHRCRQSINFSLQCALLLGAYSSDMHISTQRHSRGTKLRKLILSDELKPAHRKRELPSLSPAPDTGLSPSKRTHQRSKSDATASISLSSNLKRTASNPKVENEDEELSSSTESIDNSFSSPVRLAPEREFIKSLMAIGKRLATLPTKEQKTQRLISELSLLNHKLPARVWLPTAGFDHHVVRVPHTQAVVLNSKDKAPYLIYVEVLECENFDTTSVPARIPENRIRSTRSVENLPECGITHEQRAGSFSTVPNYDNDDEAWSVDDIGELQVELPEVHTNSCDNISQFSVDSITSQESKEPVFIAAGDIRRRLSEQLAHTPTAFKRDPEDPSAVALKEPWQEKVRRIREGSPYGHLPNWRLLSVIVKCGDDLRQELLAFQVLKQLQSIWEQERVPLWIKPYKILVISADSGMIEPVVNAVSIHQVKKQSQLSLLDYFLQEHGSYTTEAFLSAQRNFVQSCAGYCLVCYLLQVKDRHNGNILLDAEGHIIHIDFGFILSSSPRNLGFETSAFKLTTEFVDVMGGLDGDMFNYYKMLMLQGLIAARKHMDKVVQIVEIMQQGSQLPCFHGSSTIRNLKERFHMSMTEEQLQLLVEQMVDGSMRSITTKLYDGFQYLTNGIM
# [23] = biological target: cytochrome P450 3A4 (Homo sapiens, UniProt P08684); test: Cytochrome P450 inhibition, 3A4; assay type: in vitro ADME
# cytochrome P450 3A4, sequence (P08684 whole entry): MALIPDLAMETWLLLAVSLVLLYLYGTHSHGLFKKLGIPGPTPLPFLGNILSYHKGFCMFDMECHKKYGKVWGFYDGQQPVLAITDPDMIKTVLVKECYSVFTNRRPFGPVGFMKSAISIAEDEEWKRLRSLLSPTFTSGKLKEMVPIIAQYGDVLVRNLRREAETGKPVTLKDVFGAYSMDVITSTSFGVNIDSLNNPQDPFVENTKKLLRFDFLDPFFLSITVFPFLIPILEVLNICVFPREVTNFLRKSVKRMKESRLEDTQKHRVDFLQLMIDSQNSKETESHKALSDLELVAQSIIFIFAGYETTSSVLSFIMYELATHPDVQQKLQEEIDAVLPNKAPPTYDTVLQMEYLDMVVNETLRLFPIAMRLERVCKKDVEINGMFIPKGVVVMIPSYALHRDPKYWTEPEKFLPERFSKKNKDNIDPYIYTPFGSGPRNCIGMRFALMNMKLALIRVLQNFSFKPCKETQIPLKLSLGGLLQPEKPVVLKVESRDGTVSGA
# [24] = tested on: zebrafish embryos; test: in vivo
# [25] = in vivo; conditions: zebrafish, in vivo
compound,measurement,setting,value
"O[C@H]1CNCC[C@@H]1Nc1ccnc2ccc(-c3ccc(C(F)(F)F)nc3)nc12 (racemic) [Compound 28, rac-trans-4-[[6-[6-(Trifluoromethyl)pyridin-3-yl]-1,5-naphthyridin-4-yl]amino]piperidin-3-ol]",IC50,[1],624 ± 76 nM
same,IC50,[2],212 ± 127 nM
same,IC50,[3],182 ± 44 nM
same,IC50,[4],967 ± 163 nM
same,IC50,[5],> 50000 nM
same,IC50,[6],168 ± 55 nM
same,IC50,[7],95000 ± 16000 nM
same,solubility at 20 h,[8]; aqueous solution,200 µM
"FC(F)(F)c1ccc(-c2ccc3nccc(N[C@@H]4CCNC4)c3n2)cn1 [Compound 16, N-[(3R)-Pyrrolidin-3-yl]-6-[6-(trifluoromethyl)pyridin-3-yl]-1,5-naphthyridin-4-amine]",CLint scaled at 1 µM,[9],< 21 mL/min/kg
same,IC50,[10],> 20000 nM
same,efflux ratio,[11],13
same,Papp A→B,[11]; A > B,2.6 ×10⁻⁶ cm/s
same,IC50,[12],> 20000 nM
same,CLint scaled at 1 µM,[13],< 467 mL/min/kg
same,IC50,"[14]; 72 h, read-out: ABS IC50 for PfPI4K cKD, N=1, +aTc, experiment N=1, +aTc (500 nM, control conditions), 72 hours",71 nM
same,IC50,"[14]; 72 h, read-out: ABS IC50 for PfPI4K cKD, N=1, no aTc, experiment N=1, no aTc (PI4K knockdown), 72 hours",72 nM
same,IC50,"[14]; 72 h, read-out: ABS IC50 for PfPI4K cKD, N=2, +aTc, experiment N=2, +aTc (500 nM, control conditions), 72 hours",118 nM
same,IC50,"[14]; 72 h, read-out: ABS IC50 for PfPI4K cKD, N=2, no aTc, experiment N=2, no aTc (PI4K knockdown), 72 hours",118 nM
same,IC50,"[14]; 72 h, read-out: ABS IC50 for PfPI4K cKD, N=3, +aTc, experiment N=3, +aTc (500 nM, control conditions), 72 hours",63 nM
same,IC50,"[14]; 72 h, read-out: ABS IC50 for PfPI4K cKD, N=3, no aTc, experiment N=3, no aTc (PI4K knockdown), 72 hours",72 nM
same,IC50,"[14]; read-out: ABS IC50 for PfPI4K cKD, Mean + SD, +aTc, mean of N=3, +aTc (control conditions)",84 ± 30 nM
same,IC50,"[14]; read-out: ABS IC50 for PfPI4K cKD, Mean + SD, no aTc, mean of N=3, no aTc (PI4K knockdown)",88 ± 27 nM
same,"ABS IC50 for PfPI4K cKD, N=1, fold shift","[14]; experiment N=1, +aTc vs no aTc",0.98 fold
same,"ABS IC50 for PfPI4K cKD, N=2, fold shift","[14]; experiment N=2, +aTc vs no aTc",1.00 fold
same,"ABS IC50 for PfPI4K cKD, N=3, fold shift","[14]; experiment N=3, +aTc vs no aTc",0.88 fold
same,"ABS IC50 for PfPI4K cKD, mean fold shift (fold decrease in IC50 on knockdown)","[14]; mean, +aTc vs no aTc",0.95 fold
same,logD at 3 h,[15],0.96
same,IC50,[4],66 ± 21 nM
same,CLint scaled at 1 µM,[16],< 13 mL/min/kg
same,IC50,[17],8900 nM
same,IC50,[18],> 10000 nM
same,IC50,[19],> 10000 nM
same,in vivo mouse CLu,[20],76 mL/min/kg
same,Vd at 24 h,"[20]; in vivo, iv, 2 mg/kg",3.1 L/kg
same,half-life at 24 h,"[20]; in vivo, iv, 2 mg/kg",2.7 h
same,bioavailability at 24 h,"[20]; in vivo, po",96%
same,in vivo mouse CLb,"[20]; iv, 2 mg/kg",13.70 mL/min/kg
same,IC50,[5],> 50000 nM
same,IC50,[6],86 ± 16 nM
same,"fraction unbound at 5 h, 5 µM",[21],0.18
same,IC50,[7],32000 nM and < 60000 nM
same,IC50,[22],> 10000 nM
same,solubility at 20 h,"[8]; PBS, pH 6.5",195 µM
same,solubility at 20 h,[8]; aqueous solution,200 µM
same,IC50,[23],> 20000 nM
"NC1CCN(c2ccnc3ccc(-c4ccc(C(F)(F)F)nc4)nc23)CC1 [Compound 18, 1-[6-[6-(Trifluoromethyl)pyridin-3-yl]-1,5-naphthyridin-4-yl]piperidin-4-amine]",IC50,[1],477 ± 34 nM
same,IC50,[4],559 ± 30 nM
same,IC50,[5],> 50000 nM
same,IC50,[6],420 ± 87 nM
same,IC50,[7],137000 ± 4000 nM
same,solubility at 20 h,[8]; aqueous solution,160 µM
"FC(F)(F)c1ccc(-c2ccc3nccc(NCC4CCNCC4)c3n2)cn1 [Compound 20, N-(Piperidin-4-ylmethyl)-6-[6-(trifluoromethyl)pyridin-3-yl]-1,5-naphthyridin-4-amine]",IC50,[1],350 ± 4 nM
same,IC50,[4],1510 ± 643 nM
same,IC50,[5],> 50000 nM
same,IC50,[6],65 ± 2 nM
same,IC50,[7],37000 nM and < 60000 nM
same,solubility at 20 h,[8]; aqueous solution,190 µM
"CC1CNCCC1Nc1ccnc2ccc(-c3ccc(C(F)(F)F)nc3)nc12 (stereo not drawn) [Compound 24, N-(3-Methylpiperidin-4-yl)-6-[6-(trifluoromethyl)pyridin-3-yl]-1,5-naphthyridin-4-amine]",IC50,[1],104 ± 9 nM
same,IC50,[4],131 ± 89 nM
same,IC50,[5],47000 nM
same,IC50,[6],50 ± 25 nM
same,solubility at 20 h,[8]; aqueous solution,195 µM
"CN1CCC(Nc2ccnc3ccc(-c4cccnc4)nc23)CC1 [Compound 29, N-(1-Methylpiperidin-4-yl)-6-pyridin-3-yl-1,5-naphthyridin-4-amine]",IC50,[1],1280 ± 148 nM
same,IC50,[4],64 ± 14 nM
same,IC50,[5],> 50000 nM
same,IC50,[6],526 ± 47 nM
same,solubility at 20 h,[8]; aqueous solution,195 µM
"CN1CCC(Nc2ccnc3ccc(-c4cccnc4C(F)(F)F)nc23)CC1 [Compound 30, N-(1-Methylpiperidin-4-yl)-6-[2-(trifluoromethyl)pyridin-3-yl]-1,5-naphthyridin-4-amine]",IC50,[1],300 ± 11 nM
same,IC50,[4],170 ± 38 nM
same,IC50,[5],> 50000 nM
same,IC50,[6],270 ± 96 nM
same,IC50,[7],75000 ± 6000 nM
same,solubility at 20 h,[8]; aqueous solution,200 µM
"Cc1nc(C(F)(F)F)ccc1-c1ccc2nccc(NC3CCN(C)CC3)c2n1 [Compound 31, N-(1-Methylpiperidin-4-yl)-6-[2-methyl-6-(trifluoromethyl)pyridin-3-yl]-1,5-naphthyridin-4-amine]",IC50,[1],367 ± 5 nM
same,IC50,[4],174 ± 102 nM
same,IC50,[5],> 50000 nM
same,IC50,[6],499 ± 24 nM
same,solubility at 20 h,[8]; aqueous solution,195 µM
"CN1CCC(Nc2ccnc3ccc(-c4ccc(C#N)nc4)nc23)CC1 [Compound 32, 5-[8-[(1-Methylpiperidin-4-yl)amino]-1,5-naphthyridin-2-yl]pyridine-2-carbonitrile]",IC50,[1],730 ± 53 nM
same,IC50,[4],676 ± 23 nM
same,IC50,[5],> 50000 nM
same,IC50,[6],160 ± 40 nM
same,IC50,[7],51000 ± 2000 nM
same,solubility at 20 h,[8]; aqueous solution,200 µM
"CNC(=O)c1ccc(-c2ccc3nccc(NC4CCN(C)CC4)c3n2)cn1 [Compound 33, N-Methyl-5-[8-[(1-methylpiperidin-4-yl)amino]-1,5-naphthyridin-2-yl]pyridine-2-carboxamide]",IC50,[1],> 6000 nM
same,IC50,[4],77 ± 48 nM
same,IC50,[5],25000 nM
same,IC50,[6],400 ± 1 nM
same,IC50,[7],131000 ± 6000 nM
"CN1CCC(Nc2ccnc3ccc(-c4ccc(OCCCO)nc4)nc23)CC1 [Compound 35, 3-[5-[8-[(1-Methylpiperidin-4-yl)amino]-1,5-naphthyridin-2-yl]pyridin-2-yl]oxypropan-1-ol]",IC50,[1],462 ± 52 nM
same,IC50,[4],19 ± 12 nM
same,IC50,[5],> 50000 nM
same,IC50,[6],203 ± 6 nM
same,IC50,[7],> 200000 nM
same,solubility at 20 h,[8]; aqueous solution,200 µM
"CN1CCC(Nc2cc(N)nc3ccc(-c4ccc(C(F)(F)F)nc4)nc23)CC1 [Compound 36, 4-N-(1-Methylpiperidin-4-yl)-6-[6-(trifluoromethyl)pyridin-3-yl]-1,5-naphthyridine-2,4-diamine]",IC50,[1],192 ± 7 nM
same,IC50,[4],9400 ± 849 nM
same,IC50,[5],26000 nM
same,IC50,[6],40 ± 11 nM
same,IC50,[7],35000 nM and < 60000 nM
same,solubility at 20 h,[8]; aqueous solution,180 µM
"CCN(CC)c1ccc(C=O)cc1 [DEAB, Diethylaminobenzaldehyde]",teratogen,[24]; classification,yes
same,TI (teratogenic index),"[24]; ratio between LC50 and AC50, >3 classifies as teratogen",4.6
same,AC50,[25]; 50% larvae population show a teratogenic phenotype,1000 nM
same,LC50 at 96 h,[25]; concentration at which 50% of larvae die at 96 h post fertilization,4600 nM
